≈ marks a conversion by molar mass, not a printed value.
Tests used:
[1] = target: Cyclin-dependent kinase 2/cyclin E1 (Homo sapiens) (UniProt P24864+P24941); assay: Inhibition of human recombinant full length C-terminal His6 tagged CDK2/ N-terminal GST-tagged Cyclin E expressed in baculovirus infected Sf21 insect cells using histone H1 as substrate assessed as residual activity at 1 uM pretreated for 20 mins followed by [33P]-ATP addition measured after 120 mins by radiometric hotspot kinase assay relative to control; details: time 140.0 min
[2] = target: Wee1-like protein kinase (Homo sapiens) (UniProt P30291); assay: Inhibition of human recombinant full length WEE1 expressed in insect cells using MBP as substrate assessed as residual activity at 1 uM pretreated for 20 mins followed by [33P]-ATP addition measured after 120 mins by radiometric hotspot kinase assay relative to control; details: time 140.0 min
Sequence of Wee1-like protein kinase (Homo sapiens) (P30291 whole entry, looked up): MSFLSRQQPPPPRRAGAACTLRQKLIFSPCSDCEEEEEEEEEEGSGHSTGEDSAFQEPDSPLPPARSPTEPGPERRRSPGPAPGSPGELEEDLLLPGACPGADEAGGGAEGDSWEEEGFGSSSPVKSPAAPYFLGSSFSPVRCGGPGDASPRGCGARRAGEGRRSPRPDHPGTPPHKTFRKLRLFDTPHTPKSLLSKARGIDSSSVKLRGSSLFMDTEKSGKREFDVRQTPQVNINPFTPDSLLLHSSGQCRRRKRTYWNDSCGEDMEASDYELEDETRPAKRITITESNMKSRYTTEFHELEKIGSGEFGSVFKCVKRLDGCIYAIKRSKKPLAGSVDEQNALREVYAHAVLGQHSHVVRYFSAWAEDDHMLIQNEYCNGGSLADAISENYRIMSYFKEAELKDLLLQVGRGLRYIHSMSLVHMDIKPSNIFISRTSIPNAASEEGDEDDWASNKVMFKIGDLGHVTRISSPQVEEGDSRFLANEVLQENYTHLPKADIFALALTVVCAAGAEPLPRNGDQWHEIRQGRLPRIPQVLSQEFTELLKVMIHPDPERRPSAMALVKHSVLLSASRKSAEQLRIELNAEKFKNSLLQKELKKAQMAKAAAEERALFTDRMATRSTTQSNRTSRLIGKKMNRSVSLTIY

[3] = Solubility of the compound in E3 medium with 0.2% DMSO by DAD-HPLC based shake flask method; assay type: physicochemical
[4] = Solubility of the compound in DMEM with 1% DMSO by DAD-HPLC based shake flask method; assay type: physicochemical
[5] = Permeability across apical to basolateral side in human Caco-2 cells at pH 6.5 at 1 uM; assay type: ADME, cell-based; details: Caco-2, pH 6.5, read-out: permeability
[6] = Permeability across apical to basolateral side in human Caco-2 cells at pH 6.5 assessed as compound recovery at 1 uM; assay type: ADME, cell-based; details: Caco-2, pH 6.5, read-out: Drug recovery
[7] = Permeability across basolateral to apical side in human Caco-2 cells at pH 7.4 assessed as compound recovery at 1 uM; assay type: ADME, cell-based; details: Caco-2, pH 7.4, read-out: Drug recovery
Danio rerio [8] = species on record: Danio rerio; assay: Toxicity in zebra fish embryos assessed as phenotype changes at 0.01 to 2.5 uM measured after 96 hrs; assay type: organism-based; details: zebrafish, in vivo, dose 0.01-2.5 µM
[9] = Toxicity in zebra fish embryos assessed as lethality at 2.5 uM measured after 24 hrs relative to control; assay type: organism-based, Danio rerio; details: zebrafish, in vivo, read-out: Activity
[10] = Toxicity in zebra fish embryos assessed as lethality at 1.5 uM measured after 96 hrs relative to control; assay type: organism-based, Danio rerio; details: zebrafish, in vivo, read-out: Activity
Danio rerio [11] = species on record: Danio rerio; assay: Toxicity in wild type zebra fish model of polycystic kidney disease assessed as minor tubular volume expansion at 0.5 uM incubated for 48 hrs in presence of N-phenyl thiourea further treated with PT-yellow for 20 mins followed by dye washout and incubated in solution containing compound for 96 hrs by fluorescence imaging analysis; assay type: organism-based; details: zebrafish, in vivo

COC(=O)c1cccc(-c2cnc3[nH]cc(-c4cccnc4)c3c2)c1
Activity [1]: 1.6%
Activity [2]: 82.1%
solubility [3]: 1.9 µM (≈ 0.626 µg/mL)
solubility [4]: 4.3 µM (≈ 1.42 µg/mL)
Papp A→B at 1 µM [5]: 0.13 ×10⁻⁶ cm/s
recovery at 1 µM [6]: 0.4%
recovery at 1 µM [7]: 29.6%
Activity (Danio rerio [8]): Non-Toxic
mortality at 24 h, 2.5 µM [9]: 100%
mortality at 96 h, 1.5 µM [10]: 100%
Activity (Danio rerio [11]): Toxic
